Reference: paper PMC8143291, “Cytotoxicity and Microbicidal Activity of Commonly Used Organic Solvents: A Comparative Study and Application to a Standardized Extract from Vaccinium macrocarpon” (Toxics, 2021)

Assays:
[1] = tested on: Candida Albicans SAIMC 562; test: Broth microdilution MIC/MBC; type: cell-based; settings: 24 h exposure; v/v; n = 3
From the text: The bacterial strains used for AST of the solvents included: Staphylococcus aureus (ATCC 29213), Staphylococcus aureus—MRSA (NBIMCC 8327—resistant to methicillin and oxacillin, National Bulgarian Collection for Industrial Microorganisms and Cell Cultures, Sofia, Bulgaria), Streptococcus pyogenes (SAIMC 10535, Collection of the Stephan Angeloff Institute of Microbiology, Sofia, Bulgaria), Enterococcus faecalis (ATCC 29212), Escherichia coli (ATCC 35218), Pseudomonas aeruginosa (ATCC 27853), and Yersinia enterocolitica (IP864 O:3, Collection of Institut Pasteur, Paris, France). The selected strains are the most often investigated ones in the AST research studies in correspondence with the standard ISO 20776-1 Part 1: Reference method for testing the in vitro activity of antimicrobial agents against rapidly growing aerobic bacteria involved in infectious diseases. […] The strains S. aureus, MRSA, E. coli and E. faecalis were grown on Mueller–Hinton broth/agar (MHB/MHA); S. pyogenes, P. aeruginosa, Y. enterocolitica and C. albicans were grown on brain heart infusion (BHI) broth/agar; E. coli was also grown on Luria–Bertani broth/agar (LBB/LBA).
(§1) The minimum inhibitory concentration (MIC) for each solvent was estimated by the broth microdilution method (BMD) in 96-well microplates, following ISO 20776/1-2006 [3] and CLSI protocols. Briefly, a standardized bacterial inoculum was prepared from each bacterial species by suspending 3–4 colonies from a pure culture into 4 mL sterile saline. The turbidity of the inocula was adjusted to McFarland 0.5 (1.0 × 10^8 CFU/mL, λ = 600 nm), and 50 µL were resuspended in 10 mL of the appropriate culture medium for each strain. The bacterial inocula were added to microtiter trays containing equivalent volumes of medium loaded with the relevant solvent in concentrations varying from 0.025 to 25% volume fraction. The final volume of each sample was 100 µL/well. The plates were incubated at 37 °C for 24 h. The pure culture medium served as a negative control. Every MIC was evaluated visually as the lowest concentration without visible growth. […] MBC was defined as the lowest compound’s concentration reducing the colony growth of the initial bacterial inoculum by ≥ 99.9%.

E. coli ATCC 35218 = test: Broth microdilution MIC/MBC; type: cell-based, Escherichia coli; settings: 24 h exposure, v/v, n = 3
From the text: The bacterial strains used for AST of the solvents included: Staphylococcus aureus (ATCC 29213), Staphylococcus aureus—MRSA (NBIMCC 8327—resistant to methicillin and oxacillin, National Bulgarian Collection for Industrial Microorganisms and Cell Cultures, Sofia, Bulgaria), Streptococcus pyogenes (SAIMC 10535, Collection of the Stephan Angeloff Institute of Microbiology, Sofia, Bulgaria), Enterococcus faecalis (ATCC 29212), Escherichia coli (ATCC 35218), Pseudomonas aeruginosa (ATCC 27853), and Yersinia enterocolitica (IP864 O:3, Collection of Institut Pasteur, Paris, France). The selected strains are the most often investigated ones in the AST research studies in correspondence with the standard ISO 20776-1 Part 1: Reference method for testing the in vitro activity of antimicrobial agents against rapidly growing aerobic bacteria involved in infectious diseases. The antimycotic activity was tested on Candida albicans (CBS 562, Utrecht, The Netherlands). The strains S. aureus, MRSA, E. coli and E. faecalis were grown on Mueller–Hinton broth/agar (MHB/MHA); S. pyogenes, P. aeruginosa, Y. enterocolitica and C. albicans were grown on brain heart infusion (BHI) broth/agar; E. coli was also grown on Luria–Bertani broth/agar (LBB/LBA).
as §1

Compound	MBC [1] [%]	MIC [1] [%]	MBC (E. coli ATCC 35218; in LBB) [%]	MIC (E. coli ATCC 35218; in LBB) [%]	MBC (E. coli ATCC 35218; in MHB) [%]	MIC (E. coli ATCC 35218; in MHB) [%]
polyethylene glycol of average molecular weight 400 [PEG-400]	>25	>25	>25	25	>25	>25
CCO [EtOH, ethanol]	>25	>25	>25	>25	>25	>25
C[S+](C)[O-] [DMSO, dimethyl sulfoxide]	6.25	6.25	>25	12.5	>25	12.5
